In series [1] the test system is Plasmodium falciparum. Briefly: Inhibition of recombinant Plasmodium falciparum M1 aminopeptidase assessed as residual activity at 20 uM using Ala-AMC as substrate pretreated for 30 mins followed by substrate addition by fluorescence assay relative to control.
Series [2] has as its system Plasmodium falciparum. Briefly: Antimalarial activity against synchronized ring stage of […] Plasmodium falciparum 3D7 infected in human erythrocytes assessed as parasite growth at 25 uM after 72 hrs by YOYO-1 staining based flow cytometric analysis relative to control. Type of series: functional. In general terms: In flow cytometry, cells or beads pass a laser one at a time.

Series [3] deals with Plasmodium falciparum. Briefly: Antimalarial activity against synchronized ring stage of […] Plasmodium falciparum 3D7 infected in human erythrocytes assessed as parasite growth at 25 uM after 48 hrs by Giemsa staining based microscopic analysis. Type of series: functional, cell-based.
For the next series, the system named is Erythrocyte. Briefly: Hemolytic activity against human erythrocytes at 25 uM measured after 48 hrs. Type of series: ADME, cell-based.
The subject of series [4] is Plasmodium falciparum. Briefly: Antimalarial activity against asynchronized chloroquine-resistant Plasmodium falciparum FcB1/Columbia assessed as reduction in [3H]-hypoxanthine incorporation by measuring parasite growth at 50 uM pretreated for 24 hrs followed by [3H]-hypoxanthine addition after 24 hrs by microbeta scintillation counting analysis relative to control. Type of series: functional. Also noted: scale not given: the % may be the effect or the level left.

In series [5] the test system is Plasmodium falciparum. The series is described as follows: Antimalarial activity against asynchronized chloroquine-resistant Plasmodium falciparum FcB1/Columbia assessed as reduction in [3H]-hypoxanthine incorporation by measuring parasite growth at 5 uM pretreated for 24 hrs followed by [3H]-hypoxanthine addition after 24 hrs by microbeta scintillation counting analysis relative to control. Also noted: scale not given: the % may be the effect or the level left. Type of series: functional.

A short description of series [6]: Inhibition of recombinant Plasmodium falciparum M1 aminopeptidase using Ala-AMC as substrate pretreated for 30 mins followed by substrate addition by fluorescence assay.
For series [7], the system named is Plasmodium falciparum. The series is described as follows: Antimalarial activity against synchronized ring stage of […] Plasmodium falciparum 3D7 infected in human erythrocytes after 48 hrs by Giemsa staining based microscopic analysis. Type of series: functional, cell-based.

Structures are written as SMILES. Active and inactive are the calls of the source. Unless noted, the rule behind the calls is not given here.

Results on 20 compounds are retold here after ChEMBL document CHEMBL4043116, “KBE009: An antimalarial bestatin-like inhibitor of the Plasmodium falciparum M1 aminopeptidase discovered in an Ugi multicomponent reaction-derived peptidomimetic library” (Bioorg Med Chem, 2017).

As for `O=C(NC1CCCCC1)C(c1cccnc1)N1CCC[C@H]1C(=O)O` (stereo not given in full), the Activity with Plasmodium falciparum [1] was 99%; with Plasmodium falciparum [2], 83%; with Erythrocyte it was “Non-Toxic”. Also, in the series on Plasmodium falciparum [3], the outcome was Active.
Consider `CC(C)C[C@@H](C(=O)O)N(C(=O)[C@@H](N)Cc1ccccc1)C(C(=O)NC(C)(C)C)c1cccnc1` (stereo not given in full), for which the Activity with Plasmodium falciparum [1] is 64%; in the series on Plasmodium falciparum [2], 86%; in the series on Erythrocyte, “Non-Toxic”; in the series on Plasmodium falciparum [4], 1 - 11.5%; in the series on Plasmodium falciparum [5], 16 - 99%. Moreover, the result in the series on Plasmodium falciparum [3] was Active.
Turning to `CC[C@H](C)[C@H](NC(C(=O)NC1CCCCC1)c1ccccc1)C(=O)O` (stereo not given in full), the Activity in the series on Plasmodium falciparum [1] is 96%; in the series with Plasmodium falciparum [2] it was 77%; in the series on Erythrocyte, “Non-Toxic”; in the series with Plasmodium falciparum [4] it was 39.5 - 41.5%; in the series with Plasmodium falciparum [5], 84.5 - 92.5%. In the series with Plasmodium falciparum [3], the result was Active.
`CC(C)C[C@@H](C(=O)O)N(CC(=O)NC(C)(C)C)C(=O)[C@@H](N)Cc1ccccc1`: the Activity in the series with Plasmodium falciparum [1] was 97%; in the series with Plasmodium falciparum [2] it was 45%; in the series with Erythrocyte, “Non-Toxic”; in the series on Plasmodium falciparum [4] it was 48.1 - 79.5%; in the series on Plasmodium falciparum [5], 87.5 - 91.5%. Moreover, the result in the series with Plasmodium falciparum [3] was Active.
On to `CC(C)C[C@H](N)C(=O)N(CC(=O)NC(C)(C)C)[C@@H](Cc1ccccc1)C(=O)O`, for which the Activity in the series on Plasmodium falciparum [1] is 61%; in the series with Plasmodium falciparum [2], 87%; with Erythrocyte it was “Non-Toxic”; in the series with Plasmodium falciparum [4], 71 - 83.5%; in the series on Plasmodium falciparum [5], 92.5 - 99%. The result in the series on Plasmodium falciparum [3] was Active.
In general, Ki refers to the equilibrium dissociation constant of an inhibitor or competing ligand from its target. Usually IC50 stands for the concentration needed to halve the response being measured. With `O=C(NC1CCCCC1)C(N[C@@H](Cc1ccccc1)C(=O)O)c1ccccc1` (stereo not given in full), the Activity in the series on Plasmodium falciparum [1] was 24%; with Plasmodium falciparum [2], 42%; with Erythrocyte, “Non-Toxic”. Moreover, the outcome with Plasmodium falciparum [3] was Active. Moreover, the Ki in series [6] came to 1900 nM. The same compound gave an IC50 in the series with Plasmodium falciparum [7] (3D7, 48 h) of 26000 nM.
`CC(C)C[C@H](NC(C(=O)NC1CCCCC1)c1ccccc1)C(=O)O` (stereo not given in full): the Activity in the series on Plasmodium falciparum [1] is 40%; in the series with Plasmodium falciparum [2], 82%; with Erythrocyte, “Non-Toxic”; in the series with Plasmodium falciparum [4], 15.5 - 23%; in the series with Plasmodium falciparum [5], 85.5 - 93%. The outcome with Plasmodium falciparum [3] was Active.
In the case of `CC(C)C[C@H](NCC(=O)NC1CCCCC1)C(=O)O`, the Activity was 96% with Plasmodium falciparum [1]; 60% in the series with Plasmodium falciparum [2]; “Non-Toxic” in the series with Erythrocyte; 69 - 90% in the series on Plasmodium falciparum [4]; 97 - 99% in the series on Plasmodium falciparum [5]. Besides, the outcome in the series with Plasmodium falciparum [3] was Active.
As for `CC[C@H](C)[C@H](NCC(=O)NC1CCCCC1)C(=O)O`, the Activity in the series on Plasmodium falciparum [1] is 100%; with Plasmodium falciparum [2], 93%; in the series with Erythrocyte, “Non-Toxic”; in the series on Plasmodium falciparum [4], 1.5 - 4.5%; in the series with Plasmodium falciparum [5], 79.5 - 86.5%. The outcome with Plasmodium falciparum [3] was Active.
Consider `CC(C)C[C@@H](C(=O)O)N(CC(=O)NCc1ccccc1)C(=O)[C@@H](N)Cc1ccccc1`, for which the Activity is 91% in the series with Plasmodium falciparum [1]; 89% with Plasmodium falciparum [2]; “Non-Toxic” with Erythrocyte; 79 - 100% with Plasmodium falciparum [4]; 91 - 93.5% with Plasmodium falciparum [5]. Further, the outcome in the series on Plasmodium falciparum [3] was Active.
On to `O=C(CN[C@@H](Cc1ccccc1)C(=O)O)NCc1ccccc1`, for which the Activity in the series on Plasmodium falciparum [1] is 23%; in the series with Plasmodium falciparum [2], 38%; in the series on Erythrocyte, “Non-Toxic”. Also, the outcome with Plasmodium falciparum [3] was Active. Further, the Ki in series [6] came out at 900 nM. Moreover, the inhibition entry in the series on Plasmodium falciparum [7] was “Active”.
For `COc1ccc(C(N[C@@H](CC(C)C)C(=O)O)C(=O)NC2CCCCC2)cc1OC` (stereo not given in full), the Activity was 98% in the series on Plasmodium falciparum [1], 41% with Plasmodium falciparum [2] and “Non-Toxic” in the series on Erythrocyte. In the series with Plasmodium falciparum [3], the outcome was Active.
The corresponding values for `O=C(NC1CCCCC1)C(c1ccccc1)N1CCC[C@H]1C(=O)O` (stereo not given in full) are 100%, 90%, “Non-Toxic” and “Active”.
The matching figures for `CC(C)C[C@H](NC(C(=O)NC1CCCCC1)c1cccnc1)C(=O)O` (stereo not given in full): 94%, 96%, “Non-Toxic” and “Active”.
`COc1ccc(C(C(=O)NC(C)(C)C)N(C(=O)[C@@H](N)Cc2ccccc2)[C@@H](CC(C)C)C(=O)O)cc1OC` (stereo not given in full): the Activity with Plasmodium falciparum [1] is 48%; in the series on Plasmodium falciparum [2], 95%; with Erythrocyte it was “Non-Toxic”; in the series with Plasmodium falciparum [4], 42.5 - 99%; in the series on Plasmodium falciparum [5], 56 - 99%. The outcome in the series on Plasmodium falciparum [3] was Active.
Take `CC(C)C[C@@H](C(=O)O)N(C(=O)[C@@H](N)Cc1ccccc1)C(C(=O)NCc1ccccc1)c1ccccc1` (stereo not given in full): the Activity in the series on Plasmodium falciparum [1] is 83%; in the series on Plasmodium falciparum [2], 66%; with Erythrocyte, “Non-Toxic”; in the series on Plasmodium falciparum [4], 39 - 55.5%; in the series on Plasmodium falciparum [5], 65 - 90%. Moreover, the result in the series with Plasmodium falciparum [3] was Active.
With `CC(C)C[C@@H](C(=O)O)N(C(=O)[C@@H](N)Cc1ccccc1)C(C(=O)NCC(=O)O)c1ccccc1` (stereo not given in full), the Activity is 73% in the series on Plasmodium falciparum [1]; 88% with Plasmodium falciparum [2]; “Non-Toxic” in the series with Erythrocyte; 89 - 97.5% in the series on Plasmodium falciparum [4]; 97 - 99% in the series with Plasmodium falciparum [5]. For the same compound, in the series on Plasmodium falciparum [3], the result was Active.
`O=C(CN1CCC[C@H]1C(=O)O)NC1CCCCC1`: the results for the Activity with Plasmodium falciparum [1], with Plasmodium falciparum [2] and in the series on Erythrocyte were 98%, 82% and “Non-Toxic”, respectively. The result in the series on Plasmodium falciparum [3] was Active.
For `CC(C)C[C@@H](C(=O)O)N(C(=O)[C@@H](N)Cc1ccccc1)C(C(=O)NC(C)(C)C)c1ccco1` (stereo not given in full), the Activity in the series with Plasmodium falciparum [1] is 42%; in the series on Plasmodium falciparum [2], 96%; in the series with Erythrocyte, “Non-Toxic”; in the series on Plasmodium falciparum [4], 81.5 - 95%; in the series on Plasmodium falciparum [5], 94.5 - 99%. For the same compound, the result in the series on Plasmodium falciparum [3] was Active.
Regarding `CC(C)C[C@H](N)C(=O)N(CC(=O)NCc1ccccc1)[C@H](C(=O)O)C(C)C`, the Activity is 85% with Plasmodium falciparum [1]; 65% in the series with Plasmodium falciparum [2]; “Non-Toxic” in the series with Erythrocyte; 67 - 78% with Plasmodium falciparum [4]; 76.5 - 79% in the series on Plasmodium falciparum [5]. In the series on Plasmodium falciparum [3], the outcome was Active.
